The values below come from ChEMBL document CHEMBL1909294, “Translating clinical findings into knowledge in drug safety evaluation--drug induced liver injury prediction system (DILIps)” (PLoS Comput Biol, 2011).

Data set [1] has as its system Hepatotoxicity.
Data set [2] deals with Hepatotoxicity. This is another data set of the same source.
Data set [3] relates to Hepatotoxicity. This is another data set of the same source.
Data set [4] relates to Hepatotoxicity. This is another data set of the same source.
The test system of data set [5] is Hepatotoxicity. The source holds these as a separate data set.
The test system of data set [6] is Hepatotoxicity. The source holds these as a separate data set.
The subject of data set [7] is Hepatotoxicity. The source holds these as a separate data set.
The test system of data set [8] is Hepatotoxicity. This is another data set of the same source.
Data set [9] deals with Hepatotoxicity. This is another data set of the same source.
Data set [10] concerns Hepatotoxicity. This is another data set of the same source.
Data set [11] relates to Hepatotoxicity. This is another data set of the same source.
Data set [12] has as its system Hepatotoxicity. The source holds these as a separate data set.
In data set [13] the test system is Hepatotoxicity. The source holds these as a separate data set.
In data set [14] the test system is Hepatotoxicity. The source holds these as a separate data set.
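Throughout, for HepSE Combined Scores: combined hepatic side effect score as listed in the training data of the Drug Induced Liver Injury Prediction System (DILIps).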
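Throughout, for HepSE bilirubinemia: bilirubinemia hepatic side effect score drawn from the DILIps training data, a prediction system for drug-induced liver injury; call rule not given here.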
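Throughout, for HepSE cholecystitis: Cholecystitis-related hepatic side effect score drawn from the DILIps (drug-induced liver injury prediction) training data set; call rule not given here.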
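Throughout, for HepSE cholelithiasis: hepatic side effect score for cholelithiasis, drawn from the DILIps training data for predicting drug-induced liver injury; call rule not given here.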
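Throughout, for HepSE cirrhosis: cirrhosis hepatic side effect score taken from the DILIps (drug-induced liver injury prediction) training set; call rule not given here.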
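Throughout, for HepSE elevated liver function tests: hepatic side effect score for raised liver function tests, as recorded in the DILIps training set used for predicting drug-induced liver injury.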
Throughout, for HepSE hepatic failure: call rule not given here.
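Throughout, for HepSE hepatic necrosis: score of hepatic side effects for hepatic necrosis, drawn from the training data of DILIps, a prediction system for drug-induced liver injury; call rule not given here.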
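Throughout, for HepSE hepatitis: Hepatitis-related hepatic side effect score taken from the training data of DILIps, a prediction system for drug-induced liver injury; call rule not given here.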
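Throughout, for HepSE hepatomegaly: hepatic side effect score for hepatomegaly, taken from the training set of the DILIps drug-induced liver injury prediction system; call rule not given here.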
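Throughout, for HepSE jaundice: Jaundice-related hepatic side-effect score drawn from the training data of the DILIps (drug-induced liver injury prediction system); call rule not given here.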
Throughout, for HepSE liver disease: call rule not given here.
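Throughout, for HepSE liver fatty: hepatic side effect score for fatty liver, taken from the DILIps training set for predicting drug-induced liver injury; call rule not given here.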
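Throughout, for HepSE liver function tests abnormal: hepatic side effect score taken from the DILIps (drug-induced liver injury prediction system) training data, here covering abnormal liver function test findings.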

In data set [1], `CO[C@@]1(NC(=O)C2SC(=C(C(N)=O)C(=O)O)S2)C(=O)N2C(C(=O)O)=C(CSc3nnnn3C)CS[C@@H]21` (stereo partly specified) [CEFOTETAN] gave a HepSE_liver disease of 0. The molecule also had a HepSE_hepatomegaly in data set [2] of 0. In data set [3], the HepSE_cirrhosis is 0. For the same molecule, the “HepSE_liver function tests abnormal” value in [4] stood at 0. The HepSE_cholelithiasis in [5] came to 0. Further, the HepSE_cholecystitis in data set [6] was found to be 0. Further, the HepSE_hepatitis in data set [7] is listed as 0. This molecule also gave a HepSE_liver fatty in data set [8] of 0. In [9], this molecule returned a HepSE_bilirubinemia of 0. This molecule also registered a HepSE_jaundice in [10] of 0. Also, the “HepSE_elevated liver function tests” value in data set [11] is 0. Further, in data set [12], the “HepSE_Combined Scores” value came out at 0. Further, the HepSE_hepatic necrosis in data set [13] worked out at 0. The molecule also had a HepSE_hepatic failure in data set [14] of 0.

In [1], `CN1CCC(=C2c3ccccc3C=Cc3ccccc32)CC1` [CYPROHEPTADINE] registered a HepSE_liver disease of 0. The same molecule showed a HepSE_hepatomegaly in data set [2] of 0. The same molecule registered a HepSE_cirrhosis in data set [3] of 0. Moreover, the “HepSE_liver function tests abnormal” value in data set [4] was found to be 0. The HepSE_cholelithiasis in [5] was found to be 0. The HepSE_cholecystitis in [6] was 0. Besides, in data set [7], the HepSE_hepatitis came out at 1. The same molecule had a HepSE_liver fatty in data set [8] of 0. The same molecule came in with a HepSE_bilirubinemia in data set [9] of 0. Further, in data set [10], the HepSE_jaundice is on record as 1. In addition, the “HepSE_elevated liver function tests” value in data set [11] amounted to 0. The “HepSE_Combined Scores” value in data set [12] was found to be 3. In addition, in data set [13], the HepSE_hepatic necrosis is recorded as 0. Further, in data set [14], the HepSE_hepatic failure is given as 1.

Take `CCC[C@H](N[C@@H](C)C(=O)N1[C@H](C(=O)O)C[C@@H]2CCCC[C@@H]21)C(=O)OCC` [PERINDOPRIL]: the HepSE_liver disease in [1] amounted to 0. The molecule also yielded a HepSE_hepatomegaly in data set [2] of 0. The molecule also showed a HepSE_cirrhosis in data set [3] of 0. In addition, the “HepSE_liver function tests abnormal” value in data set [4] was found to be 0. The HepSE_cholelithiasis in [5] is 0. This molecule showed a HepSE_cholecystitis in [6] of 0. This molecule also showed a HepSE_hepatitis in [7] of 1. In data set [8], this molecule returned a HepSE_liver fatty of 0. The molecule further had a HepSE_bilirubinemia in data set [9] of 0. The same molecule came in with a HepSE_jaundice in data set [10] of 1. Moreover, the “HepSE_elevated liver function tests” value in data set [11] is on record as 0. The “HepSE_Combined Scores” value in [12] was 3. In data set [13], the HepSE_hepatic necrosis is 0. Also, the HepSE_hepatic failure in [14] is on record as 1.

`CN(C)CCOC(c1ccc(Cl)cc1)c1ccccn1` (stereo unspecified) [CARBINOXAMINE]: the HepSE_liver disease in data set [1] is 0. The HepSE_hepatomegaly in [2] turned out to be 0. This molecule came in with a HepSE_cirrhosis in [3] of 0. Also, the “HepSE_liver function tests abnormal” value in [4] was determined as 0. In data set [5], this molecule showed a HepSE_cholelithiasis of 0. The HepSE_cholecystitis in [6] stood at 0. The HepSE_hepatitis in data set [7] turned out to be 0. The same molecule displayed a HepSE_liver fatty in [8] of 0. Further, in data set [9], the HepSE_bilirubinemia came to 0. Further, the HepSE_jaundice in data set [10] is on record as 0. Moreover, in data set [11], the “HepSE_elevated liver function tests” value was 0. For the same molecule, the “HepSE_Combined Scores” value in data set [12] is 0. Besides, in [13], the HepSE_hepatic necrosis is 0. The HepSE_hepatic failure in data set [14] was determined as 0.

In [1], `Oc1ccc2c(c1)[C@@]13CCCC[C@@]1(O)[C@@H](C2)N(CC1CCC1)CC3` [BUTORPHANOL] had a HepSE_liver disease of 0. In [2], this molecule had a HepSE_hepatomegaly of 0. This molecule displayed a HepSE_cirrhosis in data set [3] of 0. In [4], the “HepSE_liver function tests abnormal” value is listed as 0. Besides, the HepSE_cholelithiasis in data set [5] was determined as 0. This molecule also displayed a HepSE_cholecystitis in data set [6] of 0. In data set [7], this molecule showed a HepSE_hepatitis of 0. For the same molecule, in data set [8], the HepSE_liver fatty amounted to 0. Further, the HepSE_bilirubinemia in data set [9] is 0. This molecule came in with a HepSE_jaundice in data set [10] of 0. For the same molecule, the “HepSE_elevated liver function tests” value in [11] is on record as 0. In addition, the “HepSE_Combined Scores” value in data set [12] came out at 0. Further, the HepSE_hepatic necrosis in data set [13] was determined as 0. The HepSE_hepatic failure in data set [14] is 0.

As for `C[C@]12C=CC(=O)C=C1CC[C@H]1[C@@H]3C[C@@H](O)[C@](O)(C(=O)CO)[C@@]3(C)C[C@H](O)[C@@]12F` [TRIAMCINOLONE], the HepSE_liver disease in data set [1] is listed as 0. This molecule also yielded a HepSE_hepatomegaly in [2] of 1. The molecule also came in with a HepSE_cirrhosis in data set [3] of 0. Further, the “HepSE_liver function tests abnormal” value in [4] is given as 0. For the same molecule, the HepSE_cholelithiasis in data set [5] worked out at 0. This molecule yielded a HepSE_cholecystitis in [6] of 0. In data set [7], the HepSE_hepatitis stood at 0. In data set [8], this molecule gave a HepSE_liver fatty of 0. The same molecule displayed a HepSE_bilirubinemia in data set [9] of 0. Moreover, the HepSE_jaundice in data set [10] is recorded as 0. The “HepSE_elevated liver function tests” value in [11] is reported as 0. Also, in data set [12], the “HepSE_Combined Scores” value is recorded as 1. The same molecule came in with a HepSE_hepatic necrosis in data set [13] of 0. In [14], the HepSE_hepatic failure is reported as 0.

Take `COc1ccc(OC)c(C(O)CNC(=O)CN)c1` (stereo unspecified) [MIDODRINE]: the HepSE_liver disease in data set [1] came to 0. The molecule also displayed a HepSE_hepatomegaly in data set [2] of 0. The same molecule displayed a HepSE_cirrhosis in data set [3] of 0. For the same molecule, the “HepSE_liver function tests abnormal” value in data set [4] was found to be 0. The same molecule registered a HepSE_cholelithiasis in [5] of 0. In [6], this molecule came in with a HepSE_cholecystitis of 0. Also, the HepSE_hepatitis in data set [7] came to 0. The molecule also registered a HepSE_liver fatty in [8] of 0. The molecule also had a HepSE_bilirubinemia in data set [9] of 0. The molecule further had a HepSE_jaundice in [10] of 0. The “HepSE_elevated liver function tests” value in data set [11] is reported as 0. In data set [12], the “HepSE_Combined Scores” value stood at 0. In data set [13], this molecule had a HepSE_hepatic necrosis of 0. For the same molecule, the HepSE_hepatic failure in [14] turned out to be 0.

In turn, `CC(C(=O)O)c1ccc(-c2ccccc2)c(F)c1` (stereo unspecified) [FLURBIPROFEN] yielded a HepSE_liver disease in data set [1] of 0. The HepSE_hepatomegaly in data set [2] was found to be 0. The same molecule had a HepSE_cirrhosis in data set [3] of 0. Further, the “HepSE_liver function tests abnormal” value in data set [4] is given as 0. Moreover, in [5], the HepSE_cholelithiasis was determined as 0. In data set [6], this molecule showed a HepSE_cholecystitis of 1. In data set [7], this molecule registered a HepSE_hepatitis of 1. The molecule further yielded a HepSE_liver fatty in data set [8] of 0. The molecule further had a HepSE_bilirubinemia in data set [9] of 0. The same molecule returned a HepSE_jaundice in [10] of 1. The “HepSE_elevated liver function tests” value in [11] was 0. Moreover, the “HepSE_Combined Scores” value in [12] was 4. The molecule further came in with a HepSE_hepatic necrosis in data set [13] of 0. The molecule further registered a HepSE_hepatic failure in [14] of 1.

Regarding `CN1C[C@H](C(=O)N[C@]2(C)O[C@@]3(O)[C@@H]4CCCN4C(=O)[C@H](Cc4ccccc4)N3C2=O)C=C2c3cccc4[nH]cc(c34)C[C@H]21` [ERGOTAMINE], in data set [1], the HepSE_liver disease is 0. The HepSE_hepatomegaly in [2] came to 0. This molecule came in with a HepSE_cirrhosis in data set [3] of 0. Also, the “HepSE_liver function tests abnormal” value in data set [4] is given as 0. Also, the HepSE_cholelithiasis in [5] amounted to 0. In data set [6], this molecule gave a HepSE_cholecystitis of 0. This molecule also returned a HepSE_hepatitis in [7] of 0. In data set [8], this molecule yielded a HepSE_liver fatty of 0. Also, the HepSE_bilirubinemia in data set [9] was 0. This molecule also yielded a HepSE_jaundice in data set [10] of 0. Moreover, the “HepSE_elevated liver function tests” value in data set [11] was 0. Besides, the “HepSE_Combined Scores” value in data set [12] is 0. In data set [13], this molecule displayed a HepSE_hepatic necrosis of 0. In addition, the HepSE_hepatic failure in data set [14] is 0.
